The molecules below were run on HCV 1b-377-neo replicon cells (assay: HCV replicon FRET assay). Conditions: Hepatitis C virus; HCV replicon; read-out: Activity (EC50).
Type: cell-based
Excerpt: The HCV replicon cell line was isolated from colonies as described by Lohman, et. al. (Science 1999, 285, 110-113, expressly incorporated by reference in its entirety) and used for all experiments. The HCV replicon has the nucleic acid sequence set forth in EMBL Accession No.: AJ242652, the coding sequence of which is from nt 1801 to 7758.
The coding sequence of the published HCV replicon was synthesized by Operon Technologies, Inc. (Alameda, Calif.), and the fall-length replicon was then assembled in plasmid pGem9zf(+) (Promega, Madison, Wis.) using standard molecular biology techniques. The replicon consists of (i) the HCV 5′ UTR fused to the first 12 amino acids of the capsid protein, (ii) the neomycin phosphotransferase gene (neo), (iii) the IRES from encephalomyocarditis virus (EMCV), and (iv) HCV NS3 to NS5B genes and the HCV 3′ UTR. Plasmid DNAs were linearized with ScaI and RNA transcripts were synthesized in vitro using the T7 MegaScript transcription kit (Ambion, Austin, Tex.) according to manufacturer's directions.
To generate cell lines, 4×10^6 Huh-7 cells (kindly provided by R. Bartenschlager and available from Health Science Research Resources Bank, Japan Health Sciences Foundation) were electroporated (GenePulser System, Bio-Rad) with 10 micrograms(“μg”) of RNA transcript and plated into 100-mm dishes. After 24 hours, selective media containing 1.0 milligrams/milliliter (“mg/mL”) G418 was added and media was changed every 3 to 5 days. […] These cell lines were maintained at 37° C., 5% CO2, 100% relative humidity in DMEM (Cat#11965-084) Gibco-BRL, Rockville, Md., with 10% heat inactivated calf serum (Sigma), 10 mL of 100× penicillin/streptomycin (Cat#15140-122) Gibco-BRL, Rockville, Md., Geneticin (Cat#10131-027) Gibco-BRL, Rockville, Md. at 1 mg/mL. One of the cell lines (deposited as ATCC Accession No. PTA-4583 in the American Type Culture Collection) which had approximately 3,000 copies of HCV replicon RNA/cell was used for development of the assay (HCV 1b-377-neo replicon cells).
To perform the HCV FRET screening assay, 96-well cell culture plates were used. The FRET peptide (Anaspec, Inc., San Jose, Calif.) (Taliani et al., Anal. Biochem. 1996, 240, 60-67, hereby incorporated by reference in its entirety) contains a fluorescence donor, EDANS, near one end of the peptide and an acceptor, DABCYL, near the other end. The fluorescence of the peptide is quenched by […] resonance energy transfer (RET) between the donor and the acceptor, but as the NS3 protease cleaves the peptide the products are released from RET quenching and the fluorescence of the donor becomes apparent.
The assay reagent was made as follows: 5X luciferase cell culture lysis (Cat#E153A, Promega, Madison, Wis.) diluted to 1X with dH2O, NaCl added to […] final, the FRET peptide diluted to 20 micromolar (“μM”) final from a 2 mM stock. HCV 1b-377-neo replicon cells were trypsinized, placed into each well of a 96-well plate and allowed to attach overnight. The next day, the test compounds were added to columns 1 through 10; column 11 was media plus DMSO only, and column 12 contained a titration of interferon or an HCV specific inhibitor as a control (1000 units for A12, B12, 100 units for C12, D12, 10 units for E12, F12 and 1 unit for G12, H12). […] In addition, naïve Huh-7 cells could also be used to replace wells A12 and B12 as a background control.
At subsequent various times (typically 72 hours), 10% final volume Alamar blue (Cat#00-100, Trek Diagnostics, Cleveland, Ohio) was added to each well. The plates were returned to the incubator for 5 hours and then read in the Cytoflour (PE Biosystems) to determine Alamar blue conversion in each well as a measure of cellular toxicity.

Question: How did the EC50 turn out when `COCC(=O)N1CCC[C@H]1C(=O)Nc1ccc(/C=C/c2ccc(NC(=O)[C@@H]3CCCN3C(=O)COC)cc2)cc1` [Example 47] was run?
Answer: 100 to 1000 nM

Question: Which EC50 does the source give for `CC(C)(C)CC(=O)N1CCC[C@H]1C(=O)Nc1ccc(/C=C/c2ccc(NC(=O)[C@@H]3CCCN3C(=O)CC(C)(C)C)cc2)cc1` [Example 48] here?
Answer: 100 to 1000 nM

Question: `CC(=O)N1CCC[C@H]1C(=O)Nc1ccc(/C=C/c2ccc(NC(=O)[C@@H]3CCCN3C(=O)Cc3ccccn3)cc2)cc1` [Example 49] was tested. Which EC50 did it give?
Answer: 0.1 to 90 nM

Question: `CC(=O)N1CCC[C@H]1C(=O)Nc1ccc(/C=C/c2ccc(NC(=O)[C@@H]3CCCN3C(=O)Cc3cccnc3)cc2)cc1` [Example 50] was tested. Which EC50 did it give?
Answer: 0.1 to 90 nM

Question: Which EC50 does the source give for `CC(=O)N1CCC[C@H]1C(=O)Nc1ccc(/C=C/c2ccc(NC(=O)[C@@H]3CCCN3C(=O)Cc3ccncc3)cc2)cc1` [Example 51] here?
Answer: 100 to 1000 nM

Question: How did the EC50 turn out when `COC(=O)N1CCC[C@H]1C(=O)Nc1ccc(/C=C/c2ccc(NC(=O)[C@@H]3CCCN3C(=O)OC)cc2)cc1` [Example 52] was run?
Answer: 100 to 1000 nM

Question: With `CC(C)(C)C(=O)N1CCC[C@H]1C(=O)Nc1ccc(/C=C/c2ccc(NC(=O)[C@@H]3CCCN3C(=O)C(C)(C)C)cc2)cc1` [Example 53] as the molecule, how does the EC50 read?
Answer: 0.1 to 90 nM

Question: How did the EC50 turn out when `CC(C)(C)OC(=O)NC1(C(=O)N2CCC[C@H]2C(=O)Nc2ccc(/C=C/c3ccc(NC(=O)[C@@H]4CCCN4C(=O)C4(NC(=O)OC(C)(C)C)CC4)cc3)cc2)CC1` [Example 55] was run?
Answer: 100 to 1000 nM

Question: How did the EC50 turn out when `CCOC(=O)N1CCC[C@H]1C(=O)Nc1ccc(/C=C/c2ccc(NC(=O)[C@@H]3CCCN3C(=O)C3(C(N)=O)CC3)cc2)cc1` [Example 56] was run?
Answer: 100 to 1000 nM

Question: With `CCOC(=O)N1CCC[C@H]1C(=O)Nc1ccc(/C=C/c2ccc(NC(=O)[C@@H]3CCCN3C(=O)OCC)cc2)cc1` [Example 57] as the molecule, how does the EC50 read?
Answer: 100 to 1000 nM

Question: Which EC50 does the source give for `O=C(Nc1ccc(/C=C/c2ccc(NC(=O)[C@@H]3CCCN3C(=O)c3ccncc3)cc2)cc1)[C@@H]1CCCN1C(=O)c1ccncc1` [Example 58] here?
Answer: 0.1 to 90 nM

Question: Which EC50 does the source give for `O=C(Nc1ccc(/C=C/c2ccc(NC(=O)[C@@H]3CCCN3C(=O)c3cccnc3)cc2)cc1)[C@@H]1CCCN1C(=O)c1cccnc1` [Example 59] here?
Answer: 100 to 1000 nM

Question: How did the EC50 turn out when `[N-]=[N+]=Nc1ccc(C(=O)N2CCC[C@H]2C(=O)Nc2ccc(/C=C/c3ccc(NC(=O)[C@@H]4CCCN4C(=O)c4ccc(N=[N+]=[N-])cc4)cc3)cc2)cc1` [Example 60] was run?
Answer: 1000 to 10000 nM

Question: With `O=C(Nc1ccc(/C=C/c2ccc(NC(=O)[C@@H]3CCCN3C(=O)c3ccccc3)cc2)cc1)[C@@H]1CCCN1C(=O)c1ccccc1` [Example 61] as the molecule, how does the EC50 read?
Answer: 100 to 1000 nM

Question: How did the EC50 turn out when `NC(=O)C1(C(=O)N2CCC[C@H]2C(=O)Nc2ccc(/C=C/c3ccc(NC(=O)[C@@H]4CCCN4C(=O)C4(C(N)=O)CC4)cc3)cc2)CC1` [Example 62] was run?
Answer: 100 to 1000 nM

Question: With `O=C(Nc1ccc(/C=C/c2ccc(NC(=O)[C@@H]3CCCN3C(=O)C3CC3)cc2)cc1)[C@@H]1CCCN1C(=O)Cc1cccnc1` [Example 63] as the molecule, how does the EC50 read?
Answer: 0.1 to 90 nM

Question: With `Cn1ccnc1C(=O)N1CCC[C@H]1C(=O)Nc1ccc(/C=C/c2ccc(NC(=O)[C@@H]3CCCN3C(=O)c3nccn3C)cc2)cc1` [Example 64] as the molecule, how does the EC50 read?
Answer: 0.1 to 90 nM

Question: How did the EC50 turn out when `N#CC1(C(=O)N2CCC[C@H]2C(=O)Nc2ccc(/C=C/c3ccc(NC(=O)[C@@H]4CCCN4C(=O)C4(C#N)CC4)cc3)cc2)CC1` [Example 66] was run?
Answer: 0.1 to 90 nM

Question: With `O=C(Nc1ccc(/C=C/c2ccc(NC(=O)[C@@H]3CCCN3C(=O)c3ccco3)cc2)cc1)[C@@H]1CCCN1C(=O)c1ccco1` [Example 67] as the molecule, how does the EC50 read?
Answer: 100 to 1000 nM

Question: With `O=C(Nc1ccc(/C=C/c2ccc(NC(=O)[C@@H]3CCCN3C(=O)c3ccsc3)cc2)cc1)[C@@H]1CCCN1C(=O)c1ccsc1` [Example 68] as the molecule, how does the EC50 read?
Answer: 0.1 to 90 nM

Question: Which EC50 does the source give for `CCC(=O)N1CC=C[C@H]1C(=O)Nc1ccc(/C=C/c2ccc(NC(=O)[C@@H]3C=CCN3C(=O)CC)cc2)cc1` [Example 71] here?
Answer: 100 to 1000 nM

Question: `CC(C)C(=O)N1CC=C[C@H]1C(=O)Nc1ccc(/C=C/c2ccc(NC(=O)[C@@H]3C=CCN3C(=O)C(C)C)cc2)cc1` [Example 73] was tested. Which EC50 did it give?
Answer: 100 to 1000 nM

Question: Which EC50 does the source give for `O=C(Nc1ccc(/C=C/c2ccc(NC(=O)[C@@H]3C=CCN3C(=O)C3CCC3)cc2)cc1)[C@@H]1C=CCN1C(=O)C1CCC1` [Example 74] here?
Answer: 100 to 1000 nM

Question: With `Cc1ncccc1C(=O)N1CCC[C@H]1C(=O)Nc1ccc(/C=C/c2ccc(NC(=O)[C@@H]3CCCN3C(=O)c3cccnc3C)cc2)cc1` [Example 76] as the molecule, how does the EC50 read?
Answer: 100 to 1000 nM

Question: With `O=C(Nc1ccc(/C=C/c2ccc(NC(=O)[C@@H]3CCCN3C(=O)c3cn[nH]c3)cc2)cc1)[C@@H]1CCCN1C(=O)c1cn[nH]c1` [Example 77] as the molecule, how does the EC50 read?
Answer: 0.1 to 90 nM

Question: For `O=C(Nc1ccc(/C=C/c2ccc(NC(=O)[C@@H]3CCCN3C(=O)c3ccno3)cc2)cc1)[C@@H]1CCCN1C(=O)c1ccno1` [Example 79], which EC50 is on record?
Answer: 0.1 to 90 nM

Question: With `Cc1ccc(C(=O)N2CCC[C@H]2C(=O)Nc2ccc(/C=C/c3ccc(NC(=O)[C@@H]4CCCN4C(=O)c4ccc(C)nc4)cc3)cc2)cn1` [Example 80] as the molecule, how does the EC50 read?
Answer: 100 to 1000 nM

Question: With `CSCC(=O)N1CCC[C@H]1C(=O)Nc1ccc(/C=C/c2ccc(NC(=O)[C@@H]3CCCN3C(=O)CSC)cc2)cc1` [Example 81] as the molecule, how does the EC50 read?
Answer: 0.1 to 90 nM

Question: With `CN(C)c1ccc(C(=O)N2CCC[C@H]2C(=O)Nc2ccc(/C=C/c3ccc(NC(=O)[C@@H]4CCCN4C(=O)c4ccc(N(C)C)cc4)cc3)cc2)cc1` [Example 82] as the molecule, how does the EC50 read?
Answer: 1000 to 10000 nM

Question: For `CN(C)CC(=O)N1CCC[C@H]1C(=O)Nc1ccc(/C=C/c2ccc(NC(=O)[C@@H]3CCCN3C(=O)c3ccc(N(C)C)cc3)cc2)cc1` [Example 83], which EC50 is on record?
Answer: 100 to 1000 nM

Question: With `CSCC(=O)N1CCC[C@H]1C(=O)Nc1ccc(/C=C/c2ccc(NC(=O)[C@@H]3CCCN3C(=O)c3ccccn3)cc2)cc1` [Example 84] as the molecule, how does the EC50 read?
Answer: 0.1 to 90 nM

Question: For `O=C(Nc1ccc(/C=C/c2ccc(NC(=O)[C@@H]3CCCN3C(=O)C3CCC3)cc2)cc1)[C@@H]1CCCN1C(=O)c1ccccn1` [Example 85], which EC50 is on record?
Answer: 0.1 to 90 nM

Question: For `CSCC(=O)N1CCC[C@H]1C(=O)Nc1ccc(/C=C/c2ccc(NC(=O)[C@@H]3CCCN3C(=O)c3cccnc3)cc2)cc1` [Example 86], which EC50 is on record?
Answer: 0.1 to 90 nM

Question: For `COCC(=O)N1CCC[C@H]1C(=O)Nc1ccc(/C=C/c2ccc(NC(=O)[C@@H]3CCCN3C(=O)c3cccnc3)cc2)cc1` [Example 87], which EC50 is on record?
Answer: 0.1 to 90 nM

Question: Which EC50 does the source give for `O=C(Nc1ccc(/C=C/c2ccc(NC(=O)[C@@H]3CCCN3C(=O)C3CCC3)cc2)cc1)[C@@H]1CCCN1C(=O)c1cccnc1` [Example 88] here?
Answer: 0.1 to 90 nM

Question: Which EC50 does the source give for `CC(C)C(=O)N1CCC[C@H]1C(=O)Nc1ccc(/C=C/c2ccc(NC(=O)[C@@H]3CCCN3C(=O)c3cccnc3)cc2)cc1` [Example 89] here?
Answer: 0.1 to 90 nM

Question: How did the EC50 turn out when `CCC(=O)N1CCC[C@H]1C(=O)Nc1ccc(/C=C/c2ccc(NC(=O)[C@@H]3CCCN3C(=O)c3cccnc3)cc2)cc1` [Example 90] was run?
Answer: 0.1 to 90 nM

Question: With `COCC(=O)N1CCC[C@H]1C(=O)Nc1ccc(/C=C/c2ccc(NC(=O)[C@@H]3CCCN3C(=O)c3ccc(N(C)C)cc3)cc2)cc1` [Example 91] as the molecule, how does the EC50 read?
Answer: 100 to 1000 nM

Question: `CN(C)c1ccc(C(=O)N2CCC[C@H]2C(=O)Nc2ccc(/C=C/c3ccc(NC(=O)[C@@H]4CCCN4C(=O)C4CCC4)cc3)cc2)cc1` [Example 92] was tested. Which EC50 did it give?
Answer: 0.1 to 90 nM

Question: Which EC50 does the source give for `CC(C)C(=O)N1CCC[C@H]1C(=O)Nc1ccc(/C=C/c2ccc(NC(=O)[C@@H]3CCCN3C(=O)c3ccc(N(C)C)cc3)cc2)cc1` [Example 93] here?
Answer: 100 to 1000 nM

Question: How did the EC50 turn out when `CSCC(=O)N1CCC[C@H]1C(=O)Nc1ccc(/C=C/c2ccc(NC(=O)[C@@H]3CCCN3C(=O)Cc3cc(C)no3)cc2)cc1` [Example 94] was run?
Answer: 0.1 to 90 nM

Source: patent US8143288B2, “Inhibitors of HCV replication” (priority 2005, dated 2012)
